This passage reports pest or weed control results from patent US20230017045A1, “PYRIDINE AND PYRIMIDINE CARBOXYLATE HERBICIDES AND METHODS OF USE THEREOF” (Dow AgroSciences LLC, priority 2017, published 2023).

Molecules are shown by their SMILES. Read-outs that look alike come from different tables or passages of the source.

The subject of the test is test plant species. Briefly: Post-emergent herbicidal activity test (greenhouse, foliar spray, visual growth reduction). Format: in vivo. The conditions noted are these: post-emergence, 336 h, 140 g ai/ha. The procedure: Post-emergent Test: Seeds or nutlets of the desired test plant species were planted in Sun Gro Metro-Mix® 360 planting mixture, which typically has a pH of 6.0 to 6.8 and an organic matter content of about 30 percent, in plastic pots with a surface area of 64 square centimeters. In some aspects, to ensure good germination and healthy plants, a fungicide treatment and/or other chemical or physical treatment was applied. The plants were grown for 7-21 d in a greenhouse with an approximate 15 h photoperiod which was maintained at 23-29° C. during the day and 22-28° C. during the night. Nutrients and water were added on a regular basis and supplemental lighting was provided with overhead metal halide 1000-Watt lamps as necessary. Plants were used for testing when they reached the first or second true leaf stage. A weighed amount, determined by the highest rate to be tested, of each test compound was placed in a 25 mL glass vial and was dissolved in 4 mL of a 97:3 v/v mixture of acetone and DMSO to obtain concentrated stock solutions. […] The concentrated stock solutions obtained were diluted with 20 mL of an aqueous mixture containing acetone, water, isopropyl alcohol, DMSO, […] crop oil concentrate, and X-77 surfactant in a 48.5:39:10:1.5:1.0:0.02 v/v ratio to obtain spray solutions containing the application rate. Compound requirements are based upon a 12 mL application volume at a rate of 187 liters per hectare (L/ha). Formulated compounds were applied to the plant material with an overhead Mandel track sprayer equipped with […] nozzles calibrated to deliver 187 L/ha over an application area of 0.64 square meters at a spray height of 18 inches (43 cm) above the average plant canopy height. Control plants were sprayed in the same manner with the solvent blank. The treated plants and control plants were placed in a greenhouse as described above and watered by subirrigation to prevent wash-off of the test compounds. After 14 d, the condition of the test plants as compared with that of the nontreated and control plants was determined visually and scored on a scale of 0 to 100 percent where 0 corresponds to no injury and 100 corresponds to complete control. In the reporting of the results, Table A: Percent Growth Reduction Conversion Table was used.

[1] abbreviates: ALOMY: blackgrass (Alopecurus myosuroides), 14 days after application, read-out: Visual Growth Reduction (%) 14 Days After Application, ALOMY.
[2] abbreviates: AMARE: redroot pigweed (Amaranthus retroflexus), 14 days after application, read-out: Visual Growth Reduction (%) 14 Days After Application, AMARE.
Where [3] appears, read: AVEFA: wild oat (Avena fatua), 14 days after application, read-out: Visual Growth Reduction (%) 14 Days After Application, AVEFA.
Where [4] appears, read: CHEAL: lambsquarters (Chenopodium album), 14 days after application, read-out: Visual Growth Reduction (%) 14 Days After Application, CHEAL.
[5] abbreviates: CIRAR: canada thistle (Cirsium arvense), 14 days after application, read-out: Visual Growth Reduction (%) 14 Days After Application, CIRAR.
The mark [6] stands for this setting: CYPES: yellow nutsedge (Cyperus esculentus), 14 days after application, read-out: Visual Growth Reduction (%) 14 Days After Application, CYPES.
[7] abbreviates: DIGSA: crabgrass (Digitaria sanguinalis), 14 days after application, read-out: Visual Growth Reduction (%) 14 Days After Application, DIGSA.
Where [8] appears, read: barnyardgrass (Echinochloa crus-galli), 14 Days After Application, read-out: Visual Growth Reduction (%) ECHCG.
Where [9] appears, read: common chickweed (Stellaria media), 14 Days After Application, read-out: Visual Growth Reduction (%) STEME.
Where [10] appears, read: giant foxtail (Setaria faberi), 14 Days After Application, read-out: Visual Growth Reduction (%) SETFA.
Where [11] appears, read: ivy-leaf morning glory (Ipomoea hederacea), 14 Days After Application, read-out: Visual Growth Reduction (%) IPOHE.
The mark [12] stands for this setting: johnsongrass (Sorghum vulgare), 14 Days After Application, read-out: Visual Growth Reduction (%) SORVU.
[13] abbreviates: kochia (Bassia scoparia), 14 Days After Application, read-out: Visual Growth Reduction (%) KCHSC.
[14] abbreviates: rice (Oryza sativa), 14 Days After Application, read-out: Visual Growth Reduction (%) ORYSA.
[15] abbreviates: wheat, spring (Triticum aestivum), 14 Days After Application, read-out: Visual Growth Reduction (%) TRZAS.
Setting [16] is: ECHCG: barnyardgrass (Echinochloa crus-galli), 14 days after application, read-out: Visual Growth Reduction (%) 14 Days After Application, ECHCG.
[17] abbreviates: IPOHE: ivy-leaf morning glory (Ipomoea hederacea), 14 days after application, read-out: Visual Growth Reduction (%) 14 Days After Application, IPOHE.
Setting [18] is: KCHSC: kochia (Bassia scoparia), 14 days after application, read-out: Visual Growth Reduction (%) 14 Days After Application, KCHSC.
The mark [19] stands for this setting: ORYSA: rice (Oryza sativa), 14 days after application, read-out: Visual Growth Reduction (%) 14 Days After Application, ORYSA.
The mark [20] stands for this setting: SETFA: giant foxtail (Setaria faberi), 14 days after application, read-out: Visual Growth Reduction (%) 14 Days After Application, SETFA.
Setting [21] is: SORVU: grain sorghum (Sorghum vulgare), 14 days after application, read-out: Visual Growth Reduction (%) 14 Days After Application, SORVU.
Setting [22] is: STEME: common chickweed (Stellaria media), 14 days after application, read-out: Visual Growth Reduction (%) 14 Days After Application, STEME.
[23] abbreviates: TRZAS: wheat, spring (Triticum aestivum), 14 days after application, read-out: Visual Growth Reduction (%) 14 Days After Application, TRZAS.

Regarding `COC(=O)c1nc(-c2ccc(C(F)F)cc2Cl)ccc1Cl` [F19, methyl 3-chloro-6-(2-chloro-4-(difluoromethyl)phenyl)picolinate], the pest or weed control at 140 g/ha by setting is: under setting [1], 0 to 29%; under setting [2], 95 to 100%; under setting [3], 0 to 29%; under setting [4], 95 to 100%; under setting [5], 95 to 100%; under setting [6], 30 to 44%. The pest or weed control at 140 g/ha was 0 to 29% under setting [7]; 0 to 29% under setting [8]; 0 to 29% under setting [9]; 0 to 29% under setting [10]; 95 to 100% under setting [11]; 30 to 44% under setting [12]. Further, the pest or weed control at 140 g/ha is 85 to 94% under setting [13], 0 to 29% under setting [14] and 0 to 29% under setting [15].
`COC(=O)c1nc(-c2ccc(/C=N/N(C)C)cc2Cl)ccc1Cl` [F20, methyl 3-chloro-6-(2-chloro-4-((2,2-dimethylhydrazono)methyl)phenyl) picolinate]: the pest or weed control at 140 g/ha lay within 0 to 29% under setting [1]; 0 to 29% under setting [2]; 0 to 29% under setting [3]; 0 to 29% under setting [4]; 0 to 29% under setting [5]; 0 to 29% under setting [6]. Also, the pest or weed control at 140 g/ha was in the range of 0 to 29% under setting [7]; 0 to 29% under setting [8]; 0 to 29% under setting [9]; 0 to 29% under setting [10]; 60 to 74% under setting [11]; 0 to 29% under setting [12]. The pest or weed control at 140 g/ha is, setting by setting: under setting [13], 0 to 29%; under setting [14], 0 to 29%; under setting [15], 0 to 29%.
Take `CO/N=C/c1ccc(-c2ccc(Cl)c(C(=O)OC)n2)c(Cl)c1` [F21, methyl 3-chloro-6-(2-chloro-4-((methoxyimino)methyl)phenyl)picolinate]: the pest or weed control at 140 g/ha runs as follows: under setting [1], 0 to 29%; under setting [2], 0 to 29%; under setting [3], 0 to 29%; under setting [4], 0 to 29%; under setting [5], 0 to 29%; under setting [6], 0 to 29%. Further, the pest or weed control at 140 g/ha is 0 to 29% under setting [7]; 0 to 29% under setting [8]; 0 to 29% under setting [9]; 0 to 29% under setting [10]; 0 to 29% under setting [11]; 0 to 29% under setting [12]. In addition, the pest or weed control at 140 g/ha runs as follows: under setting [13], 0 to 29%; under setting [14], 0 to 29%; under setting [15], 0 to 29%.
In the case of `COC(=O)c1nc(-c2ccc(C=O)cc2Cl)ccc1Cl` [F22, methyl 3-chloro-6-(2-chloro-4-formylphenyl)picolinate], the pest or weed control at 140 g/ha is, setting by setting: under setting [1], 0 to 29%; under setting [2], 0 to 29%; under setting [3], 0 to 29%; under setting [4], 0 to 29%; under setting [5], 0 to 29%; under setting [6], 0 to 29%. Further, the pest or weed control at 140 g/ha was in the range of 0 to 29% under setting [7]; 0 to 29% under setting [16]; 0 to 29% under setting [17]; 0 to 29% under setting [18]; 0 to 29% under setting [19]; 0 to 29% under setting [20]. In addition, the pest or weed control at 140 g/ha fell in the range of 0 to 29% under setting [21], 0 to 29% under setting [22] and 0 to 29% under setting [23].
With `C=Cc1ccc(-c2ccc(Cl)c(C(=O)OC)n2)c(Cl)c1` [F23, methyl 3-chloro-6-(2-chloro-4-vinylphenyl)picolinate], the pest or weed control at 140 g/ha lay within 0 to 29% under setting [1]; 0 to 29% under setting [2]; 0 to 29% under setting [3]; 0 to 29% under setting [4]; 0 to 29% under setting [5]; 0 to 29% under setting [6]. The pest or weed control at 140 g/ha lay within 0 to 29% under setting [7]; 0 to 29% under setting [16]; 30 to 44% under setting [17]; 0 to 29% under setting [18]; 0 to 29% under setting [19]; 0 to 29% under setting [20]. For the same molecule, the pest or weed control at 140 g/ha under setting [21] fell in the range of 0 to 29%, the pest or weed control at 140 g/ha under setting [22] lay within 0 to 29% and the pest or weed control at 140 g/ha under setting [23] was 0 to 29%.
Consider `COC(=O)c1nc(-c2ccc(C(F)(F)F)cc2C#N)ccc1Cl` [F24, Methyl 3-chloro-6-(2-cyano-4-(trifluoromethyl)phenyl) picolinate], for which the pest or weed control at 140 g/ha runs as follows: under setting [1], 0 to 29%; under setting [2], 85 to 94%; under setting [3], 0 to 29%; under setting [4], 95 to 100%; under setting [5], 95 to 100%; under setting [6], 0 to 29%. The pest or weed control at 140 g/ha is 85 to 94% under setting [7]; 85 to 94% under setting [16]; 95 to 100% under setting [17]; 60 to 74% under setting [18]; 0 to 29% under setting [19]; 45 to 59% under setting [20]. Besides, the pest or weed control at 140 g/ha under setting [21] lay in the range of 85 to 94%, the pest or weed control at 140 g/ha under setting [22] was in the range of 0 to 29% and the pest or weed control at 140 g/ha under setting [23] lay within 0 to 29%.
